Results taken from patent US6403531B1, “Herbicidal synergistic composition and method of weed control” (Syngenta Crop Protection, inc., priority 1997, dated 2002).

Columns and labels:
Format in all cases: in vivo
Solanum = assay: Post-emergence herbicidal action
Excerpt: (§1) A synergistic effect exists whenever the action of the active ingredient combination I and II, III, IV, V, VI, VII, VIII, IX or X is greater than the sum of the actions of the active ingredients applied individually. The herbicidal action to be expected, We, for a given combination of two herbicides can be calculated as follows (see COLBY, S. R. “Calculating synergistic and antagonistic response of herbicide combinations”. Weeds 15, pages 20-22; 1967):
(§2) We=expected herbicidal action (% herbicidal action in comparison with untreated control) after treatment with the compounds of formula I and II, III, IV, V, VI, VII, VIII, IX or X at a rate of application of p+q kg of active ingredient per hectare.
(§3) The test plants are raised in plastics pots under greenhouse conditions as far as the 2- to 3-leaf stage. A standard soil is used as the cultivation substrate. At the 2- to 3-leaf stage, the herbicides are applied individually and as mixtures to the test plants. The test compounds are applied in the form of an aqueous suspension in 500 l of water/ha. The rates of application depend on the optimum concentrations determined under field conditions and greenhouse conditions. Evaluation of the tests is made after 11 and 22 days (DAA=day after application) in % action. 100% denotes that the plants have died, 0% denotes no phytotoxic action.

Xanthium = assay: Pre-emergence herbicidal action
Excerpt: as §1, §2
(§4) Monocotyledonous and dicotyledonous weeds and cultivated plants are sown in standard soil in plastics pots. Immediately after sowing, the test compounds are applied as an aqueous suspension (500 l of water/ha). The rates of application depend on the optimum concentrations determined under field conditions and greenhouse conditions. Evaluation of the tests is made after 15 and 27 days (DAA=day after application) in % action. 100% denotes that the plants have died, 0% denotes no phytotoxic action.

Sesbania [1] = assay: Pre-emergence herbicidal action
Excerpt: as §1, §2, §4

Abutilon [2] = assay: Pre-emergence herbicidal action
Excerpt: as §1, §2, §4

Cassia sp. = assay: Post-emergence herbicidal action
Excerpt: as §1, §2, §3

Sorghum = assay: Post-emergence herbicidal action
Excerpt: as §1, §2, §3

Digitaria = assay: Post-emergence herbicidal action
Excerpt: as §1, §2, §3

Sesbania [3] = assay: Post-emergence herbicidal action
Excerpt: as §1, §2, §3

Abutilon [4] = assay: Post-emergence herbicidal action
Excerpt: as §1, §2, §3

Sorghum hal. = assay: Herbicidal action; settings: titled pre-emergence (under Example B2)
Cyperus = assay: Herbicidal action
cotton = assay: Pre-emergence herbicidal action (cultivated plant)
Excerpt: as §1, §2, §4

Solanum nigrum = assay: Herbicidal action; settings: post-emergence

N#Cc1cc(Br)c(O)c(Br)c1 [bromoxynil, bromoxinil]
herbicidal action on Solanum (Solanum; DAA 11, 500 g/ha): 35% | herbicidal action on Solanum (Solanum; DAA 11, 1000 g/ha): 40%

CC1(C)CON(Cc2ccccc2Cl)C1=O [clomazone]
herbicidal action on Xanthium (Xanthium; DAA 15, 125 g/ha): 10% | herbicidal action on Xanthium (Xanthium; DAA 15, 250 g/ha): 25% | herbicidal action on Xanthium (Xanthium; DAA 15, 500 g/ha): 60%

COc1cc(OC)nc(NC(=O)NOS(=O)c2ncccc2OCC(F)(F)F)n1.[Na+] (centres unmarked) [compound of formula I]
herbicidal action on Xanthium (Xanthium; DAA 15, 3.75 g/ha): 85% | herbicidal action on Xanthium (Xanthium; DAA 15, 7.5 g/ha): 90% | herbicidal action on Xanthium (Xanthium; DAA 27, 3.75 g/ha): 96% | herbicidal action on Sesbania (Sesbania [1]; DAA 15, 3.75 g/ha): 35% | herbicidal action on Sesbania (Sesbania [1]; DAA 27, 3.75 g/ha): 25% | herbicidal action on Abutilon (Abutilon [2]; DAA 27, 3.75 g/ha): 50% | herbicidal action on Cassia sp. (Cassia sp.; DAA 11, 1.88 g/ha): 70% | herbicidal action on Sorghum (Sorghum; DAA 22, 1.88 g/ha): 75% | herbicidal action on Digitaria (Digitaria; DAA 22, 1.88 g/ha): 15% | herbicidal action on Solanum (Solanum; DAA 11, 7.5 g/ha): 20% | herbicidal action on Sesbania (Sesbania [3]; DAA 11, 1.88 g/ha): 70% | herbicidal action on Abutilon (Abutilon [4]; DAA 22, 1.88 g/ha): 55% | herbicidal action on Sorghum hal. (Sorghum hal.; DAA 22, 1.88 g/ha): 75% | herbicidal action on Cyperus (Cyperus; post-emergence, DAA 22, 1.88 g/ha): 70% | herbicidal action on Cyperus (Cyperus; titled pre-emergence (under Example B2), DAA 11, 3.75 g/ha): 50% | herbicidal action on cotton (damage) (cotton; DAA 27, 3.75 g/ha): 10% | herbicidal action on Solanum nigrum (Solanum nigrum; DAA 22, 1.88 g/ha): 0% | herbicidal action on Solanum nigrum (Solanum nigrum; DAA 22, 3.75 g/ha): 0% | herbicidal action on Solanum nigrum (Solanum nigrum; DAA 22, 7.5 g/ha): 15%

CN(C)C(=O)Nc1cccc(C(F)(F)F)c1 [fluometuron]
herbicidal action on Cyperus (Cyperus; titled pre-emergence (under Example B2), DAA 11, 250 g/ha): 0% | herbicidal action on Cyperus (Cyperus; titled pre-emergence (under Example B2), DAA 11, 500 g/ha): 25% | herbicidal action on Cyperus (Cyperus; titled pre-emergence (under Example B2), DAA 11, 1000 g/ha): 20%

CP(=O)(O)CCC(N)C(=O)O (centres unmarked) [glufosinate]
herbicidal action on Sorghum (Sorghum; DAA 22, 250 g/ha): 85% | herbicidal action on Digitaria (Digitaria; DAA 22, 250 g/ha): 75% | herbicidal action on Abutilon (Abutilon [4]; DAA 22, 250 g/ha): 55% | herbicidal action on Cyperus (Cyperus; post-emergence, DAA 22, 250 g/ha): 35%

CCc1cccc(C)c1N(C(=O)CCl)C(C)COC (centres unmarked) [metolachlor]
herbicidal action on Sorghum hal. (Sorghum hal.; DAA 22, 375 g/ha): 0% | herbicidal action on Sorghum hal. (Sorghum hal.; DAA 22, 750 g/ha): 0% | herbicidal action on Sorghum hal. (Sorghum hal.; DAA 22, 1500 g/ha): 0%

CNc1cnn(-c2cccc(C(F)(F)F)c2)c(=O)c1Cl [norflurazon]
herbicidal action on Xanthium (Xanthium; DAA 27, 250 g/ha): 10% | herbicidal action on Xanthium (Xanthium; DAA 27, 500 g/ha): 35% | herbicidal action on Sesbania (Sesbania [1]; DAA 27, 250 g/ha): 10% | herbicidal action on Sesbania (Sesbania [1]; DAA 27, 500 g/ha): 30% | herbicidal action on Abutilon (Abutilon [2]; DAA 27, 250 g/ha): 60% | herbicidal action on Abutilon (Abutilon [2]; DAA 27, 500 g/ha): 60% | herbicidal action on cotton (damage) (cotton; DAA 27, 250 g/ha): 0% | herbicidal action on cotton (damage) (cotton; DAA 27, 500 g/ha): 0%

CCC(CC)Nc1c([N+](=O)[O-])cc(C)c(C)c1[N+](=O)[O-] [pendimethalin]
herbicidal action on Xanthium (Xanthium; DAA 15, 250 g/ha): 0% | herbicidal action on Xanthium (Xanthium; DAA 15, 500 g/ha): 0% | herbicidal action on Xanthium (Xanthium; DAA 15, 1000 g/ha): 0%

CSc1nc(NC(C)C)nc(NC(C)C)n1 [prometryn]
herbicidal action on Xanthium (Xanthium; DAA 15, 250 g/ha): 0% | herbicidal action on Sesbania (Sesbania [1]; DAA 15, 250 g/ha): 10% | herbicidal action on Solanum nigrum (Solanum nigrum; DAA 22, 250 g/ha): 0% | herbicidal action on Solanum nigrum (Solanum nigrum; DAA 22, 500 g/ha): 0% | herbicidal action on Solanum nigrum (Solanum nigrum; DAA 22, 1000 g/ha): 20%

COc1cc(OC)nc(Sc2cccc(Cl)c2C(=O)[O-])n1.[Na+] [pyrithiobac, pyrithiobac-sodium]
herbicidal action on Cassia sp. (Cassia sp.; DAA 11, 25 g/ha): 50% | herbicidal action on Cassia sp. (Cassia sp.; DAA 11, 50 g/ha): 80% | herbicidal action on Cassia sp. (Cassia sp.; DAA 11, 100 g/ha): 70%

CCc1cccc(C)c1N(C(=O)CCl)[C@@H](C)COC [α-metolachlor]
herbicidal action on Cassia sp. (Cassia sp.; DAA 11, 250 g/ha): 0% | herbicidal action on Cassia sp. (Cassia sp.; DAA 11, 500 g/ha): 0% | herbicidal action on Cassia sp. (Cassia sp.; DAA 11, 1000 g/ha): 0% | herbicidal action on Sesbania (Sesbania [3]; DAA 11, 250 g/ha): 0% | herbicidal action on Sesbania (Sesbania [3]; DAA 11, 500 g/ha): 0% | herbicidal action on Sesbania (Sesbania [3]; DAA 11, 1000 g/ha): 0%
